According to patent US10899758B2, “Inhibitors of the menin-MLL interaction” (Vitae Pharmaceuticals, LLC, priority 2016, dated 2021):

Target: T1, menin/MLL binding (biotinylated wild-type or mutated menin and MLL-AF9 fusion protein) (Homo sapiens, UniProt O00255)
T1 construct: biotinylated (1) wild-type menin or (2) mutated menin (described in Nature (2012) Vol. 482, pp. 542-548); fused on or other part: Biotin attached chemically (Sulfo-NHS-Biotin); no fused second protein is printed for menin
T1 sequence (O00255 1-459 limits assumed): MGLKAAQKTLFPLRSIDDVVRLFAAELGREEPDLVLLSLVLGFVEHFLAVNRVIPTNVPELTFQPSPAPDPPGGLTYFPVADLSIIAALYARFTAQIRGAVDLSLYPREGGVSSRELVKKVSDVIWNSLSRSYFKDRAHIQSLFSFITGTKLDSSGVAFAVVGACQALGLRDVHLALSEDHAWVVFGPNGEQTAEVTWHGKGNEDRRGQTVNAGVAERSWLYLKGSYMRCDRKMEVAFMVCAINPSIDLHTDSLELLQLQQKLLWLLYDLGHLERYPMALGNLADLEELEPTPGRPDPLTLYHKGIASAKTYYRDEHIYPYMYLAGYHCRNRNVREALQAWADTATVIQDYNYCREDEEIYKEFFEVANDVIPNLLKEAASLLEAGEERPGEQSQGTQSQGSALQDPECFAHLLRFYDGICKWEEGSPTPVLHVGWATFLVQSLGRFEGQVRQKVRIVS
Assay: Assay 1 (Binding Assay): AlphaLISA menin/MLL binding
Details: 5 nM biotinylated menin, MLL-AF9-FLAG lysate
Protocol: Potencies of inhibitor compounds against menin/MLL binding were assessed by AlphaLISA assay using biotinylated (1) wild-type menin or (2) mutated menin (described in Nature (2012) Vol. 482, pp. 542-548) and MLL-AF9 fusion protein bearing a FLAG epitope at its C-terminus. Menin proteins were expressed in E. coli and covalently modified with biotin using EZ-Link™ Sulfo-NHS-Biotin (ThermoFisher Cat. No. 21217) according to manufacturer's protocol. MLL1-1,396 fused to AF91-92 and the C-terminal FLAG peptide was expressed in HEK293 cells and used as a lysate cleared at 21,000×g for 10 min.
Compounds (2 μL of solutions in DMSO) were dispensed in white 96-well half-area plates (Corning Cat. No. 3693) and incubated for 30 min at RT with 5 nM biotinylated menin and appropriate amount of MLL-AF9-FLAG lysate in 40 μL of 50 mM Tris-HCl buffer pH 7.4 containing 5% (v/v) DMSO, 50 mM NaCl, 0.01% (w/v) bovine serum albumin (BSA) and 1 mM DTT. To this incubation mixture, 40 μl of AlphaLISA anti-FLAG acceptor (PerkinElmer Cat. No. AL112C) and streptavidin donor (PerkinElmer Cat. No. 6760002) beads (10 μg/mL each) was added and incubation continued at RT for 60 min. Alpha (amplified luminescent proximity homogeneous assay) signal was measured on an Envision multi-label plate reader at the end of the incubation. All steps were conducted under dim fluorescent light.
These percent inhibition values were regressed against compound concentrations in the assay using four parameter logit non-linear curve fitting (XLFit, IDBS). The IC50 values were derived from the curve fitting as inflection points on the dose-response curves and are set out in Table 14 below.

| Molecule | IC50 |
| --- | --- |
| CC(C)N(C)C(=O)c1cc(F)ccc1-n1cc(C2CCN(C(=O)OC(C)(C)C)CC2)c2ccncc21 [Int. 1, tert-butyl 4-(1-(4-fluoro-2-(isopropyl(methyl)carbamoyl)phenyl)-1H-pyrrolo[2,3-c]pyridin-3-yl)piperidine-1-carboxylate] | 100 to 1000 nM |
| CC(C)N(C)C(=O)c1cc(F)ccc1-n1cc([C@H]2CC[C@H](NC(=O)c3ccccc3)CC2)c2ccncc21 [Example 129, 2-(3-(trans-4-benzamidocyclohexyl)-1H-pyrrolo[2,3-c]pyridine-1-yl)-5-fluoro-N-isopropyl-N-methylbenzamide] | ≥ 1000 nM |
| Fc1ccc(-n2cc(C3CCN(Cc4ccc5[nH]ccc5c4)CC3)c3ncncc32)cc1 [Example 69, 7-(1-((1H-indol-5-yl)methyl)piperidin-4-yl)-5-(4-fluorophenyl)-5H-pyrrolo[3,2-d]pyrimidine] | 100 to 1000 nM |
| CC(C)N(C(=O)c1cc(F)ccc1-n1cc(C2CCCN(C(=O)OC(C)(C)C)C2)c2ccncc21)C(C)C (stereo not shown) [Int. 10, tert-butyl 3-(1-(2-(diisopropylcarbamoyl)-4-fluorophenyl)-1H-pyrrolo[2,3-c]pyridin-3-yl)piperidine-1-carboxylate] | ≥ 1000 nM |
| CC(C)N(C)C(=O)c1cc(F)ccc1-n1cc([C@H]2CC[C@@H](N3CC(CO)C3)CC2)c2ccncc21 [Example 99, 5-fluoro-2-(3-(cis-4-(3-(hydroxymethyl)azetidin-1-yl)cyclohexyl)-1H-pyrrolo[2,3-c]pyridin-1-yl)-N-isopropyl-N-methylbenzamide] | 100 to 1000 nM |
| Cc1c(CN2CCC(c3cn(-c4ccc(F)cc4)c4cncnc34)CC2)ccc2[nH]c(C#N)cc12 [Example 66, 5-((4-(5-(4-fluorophenyl)-5H-pyrrolo[3,2-d]pyrimidin-7-yl)piperidin-1-yl)methyl)-4-methyl-1H-indole-2-carbonitrile] | 100 to 1000 nM |
| Fc1ccc(-n2cc(C3CCN(CC4CCOCC4)CC3)c3ncncc32)cc1 [Example 65, 5-(4-fluorophenyl)-7-(1-((tetrahydro-2H-pyran-4-yl)methyl)piperidin-4-yl)-5H-pyrrolo[3,2-d]pyrimidine] | ≥ 1000 nM |
| CC(C)N(C)C(=O)c1cc(F)ccc1-n1cc(C2CCN(Cc3ccc(S(C)(=O)=O)cc3)CC2)c2ccncc21 [Example 13, 5-fluoro-N-isopropyl-N-methyl-2-(3-(1-(4-(methylsulfonyl)benzyl)piperidin-4-yl)-1H-pyrrolo[2,3-c]pyridin-1-yl)benzamide] | 100 to 1000 nM |
| CC(C)N(C)C(=O)c1cc(F)ccc1-n1cc([C@H]2CC[C@H](N3CCC(C(=O)O)CC3)CC2)c2ccncc21 [Example 119, 1-(trans-4-(1-(4-fluoro-2-(isopropyl(methyl)carbamoyl)phenyl)-1H-pyrrolo[2,3-c]pyridin-3-yl)cyclohexyl)piperidine-4-carboxylic acid] | 100 to 1000 nM |
| CC(C)N(C)C(=O)c1cc(F)ccc1-n1cc(-c2ccc3c(c2)CCNC3)c2ccncc21 [Int. 17C, 5-fluoro-N-isopropyl-N-methyl-2-(3-(1,2,3,4-tetrahydroisoquinolin-6-yl)-1H-pyrrolo[2,3-c]pyridin-1-yl)benzamide] | 100 to 1000 nM |
| CC(C)N(C)C(=O)c1cc(F)ccc1-n1cc(C2CCC3(CC2)OCCO3)c2ccncc21 [Int. 17A, 2-(3-(1,4-dioxaspiro[4.5]decan-8-yl)-1H-pyrrolo[2,3-c]pyridin-1-yl)-5-fluoro-N-isopropyl-N-methylbenzamide] | ≥ 1000 nM |
| CC(C)N(C)C(=O)c1cc(F)ccc1-n1cc([C@H]2CC[C@@H](N3CCN(CCO)CC3)CC2)c2ccncc21 [Example 115, 5-fluoro-2-(3-(cis-4-(4-(2-hydroxyethyl)piperazin-1-yl)cyclohexyl)-1H-pyrrolo[2,3-c]pyridin-1-yl)-N-isopropyl-N-methylbenzamide] | 100 to 1000 nM |
| CC(C)N(C)C(=O)c1cc(F)ccc1-n1c(=O)n(C2CCN(Cc3ccc4[nH]c(=O)[nH]c4c3)CC2)c2ccncc21 [Example 79, 5-fluoro-N-isopropyl-N-methyl-2-(2-oxo-1-(1-((2-oxo-2,3-dihydro-1H-benzo[d]imidazol-5-yl)methyl)piperidin-4-yl)-1,2-dihydro-3H-imidazo[4,5-c]pyridin-3-yl)benzamide] | ≥ 1000 nM |
| CC(C)N(C)C(=O)c1cc(F)ccc1-n1cc(C2CCC(O)CC2)c2ccncc21 (single isomer, unassigned) [Example 53A, 5-fluoro-2-(3-(4-hydroxycyclohexyl)-1H-pyrrolo[2,3-c]pyridin-1-yl)-N-isopropyl-N-methylbenzamide] | ≥ 1000 nM |
| CC(C)N(C)C(=O)c1cc(F)ccc1-n1cc(C2C[C@@H](C)N[C@@H](C)C2)c2ccncc21 (stereo partly drawn) [Int. 13, 2-(3-((2S,6R)-2,6-dimethylpiperidin-4-yl)-1H-pyrrolo[2,3-c]pyridin-1-yl)-5-fluoro-N-isopropyl-N-methylbenzamide] | 100 to 1000 nM |

Further lines, results first:

| IC50 | Molecule |
| --- | --- |
| 100 to 1000 nM | CC(C)N(C)C(=O)c1cc(F)ccc1-n1cc(C2CCN(C)CC2)c2ccncc21 [Example 17, 5-fluoro-N-isopropyl-N-methyl-2-(3-(1-methylpiperidin-4-yl)-1H-pyrrolo[2,3-c]pyridin-1-yl)benzamide] |
| 100 to 1000 nM | CC(C)N(C)C(=O)c1cc(F)ccc1-n1cc(C2CCCNCC2)c2ccncc21 (stereo not shown) [Example 41A, 2-(3-(azepan-4-yl)-1H-pyrrolo[2,3-c]pyridin-1-yl)-5-fluoro-N-isopropyl-N-methylbenzamide] |
| 100 to 1000 nM | Cc1c(CN2CCC(c3cn(-c4ccc(Cl)cc4)c4cnccc34)CC2)ccc2[nH]c(C#N)cc12 [Example 38, 5-((4-(1-(4-chlorophenyl)-1H-pyrrolo[2,3-c]pyridin-3-yl)piperidin-1-yl)methyl)-4-methyl-1H-indole-2-carbonitrile] |
| < 100 nM | CC(C)N(C(=O)c1cc(F)ccc1-n1cc(C2CCC(N3CCC4(CC(NS(C)(=O)=O)C4)C3)CC2)c2ccncc21)C(C)C (single isomer, unassigned) [Example 139, 5-fluoro-N,N-diisopropyl-2-(3-(4-(2-(methylsulfonamido)-6-azaspiro[3.4]octan-6-yl)cyclohexyl)-1H-pyrrolo[2,3-c]pyridin-1-yl)benzamide] |
| 100 to 1000 nM | CC(C)N(C)C(=O)c1cc(F)ccc1-n1cc([C@H]2CC[C@@H](N3CC[C@H](CO)C3)CC2)c2ccncc21 [Example 105, 5-fluoro-2-(3-(cis-4-((S)-3-(hydroxymethyl)pyrrolidin-1-yl)cyclohexyl)-1H-pyrrolo[2,3-c]pyridin-1-yl)-N-isopropyl-N-methylbenzamide] |
| < 100 nM | CC(C)N(C)C(=O)c1cc(F)ccc1-n1cc(C2CCN(Cc3ccc(C(F)(F)F)cc3)CC2)c2ccncc21 [Example 11, 5-fluoro-N-isopropyl-N-methyl-2-(3-(1-(4-(trifluoromethyl)benzyl)piperidin-4-yl)-1H-pyrrolo[2,3-c]pyridin-1-yl)benzamide] |
| < 100 nM | CC(C)N(C)C(=O)c1cc(F)ccc1-n1cc(C2CCN(C(=O)C3Cc4ccccc4C3)CC2)c2ccncc21 [Example 132, 2-(3-(1-(2,3-dihydro-1H-indene-2-carbonyl)piperidin-4-yl)-1H-pyrrolo[2,3-c]pyridin-1-yl)-5-fluoro-N-isopropyl-N-methylbenzamide] |
| < 100 nM | CC(C)N(C)C(=O)c1cc(F)ccc1-n1cc(C2CCN(c3ccccn3)CC2)c2ccncc21 [Example 94, 5-fluoro-N-isopropyl-N-methyl-2-(3-(1-(pyridin-2-yl)piperidin-4-yl)-1H-pyrrolo[2,3-c]pyridin-1-yl)benzamide] |
| < 100 nM | 5-fluoro-N-isopropyl-N- methyl-2-(3-(2-((1- (methylsulfonyl) piperidin-4-yl)methyl) octahydrocyclopenta [c]pyrrol-5-yl)- 1H-pyrrolo[2,3-c] pyridin-1-yl) benzamide [Example 91] |
| < 100 nM | CC(C)N(C)C(=O)c1cc(F)ccc1-n1cc([C@H]2CC[C@H](N3CC(CO)C3)CC2)c2ccncc21 [Example 98, 5-fluoro-2-(3-(trans-4-(3-(hydroxymethyl)azetidin-1-yl)cyclohexyl)-1H-pyrrolo[2,3-c]pyridin-1-yl)-N-isopropyl-N-methylbenzamide] |
